From ChEMBL document CHEMBL5625264, “Identification of (4-chlorophenyl)(5-hydroxynaphtho[1,2-b]furan-3-yl)methanone as novel COX-2 inhibitor with analgesic profile” (Bioorg Med Chem Lett, 2024) come the findings set out here.

Activity calls are given as the source filed them. The calls are words filed in the database; no cut-off is given here.

In assay [1] the test system is Mus musculus. The assay is described as follows: Analgesic activity in ip dosed CFA-induced ICR mouse model of chronic inflammatory pain pretreated with CFA for 3 days followed by compound administration and measured at 30 to 300 min by pain behavior test. Conditions: time 30-300 min. Type of assay: functional, organism-based.
The subject of assay [2] is Mus musculus. The assay is described as follows: Analgesic activity in ip dosed formalin-induced ICR mouse model of acute inflammatory pain. Type of assay: functional, organism-based.

As for `O=C(c1ccc(Cl)cc1)c1coc2c1cc(O)c1ccccc12`, the outcome with Mus musculus [1] and in the assay on Mus musculus [2] was Active.
Consider `NS(=O)(=O)c1ccc(-c2sncc2-c2ccc(F)cc2)cc1`, for which the result with Mus musculus [1] and in the assay on Mus musculus [2] was Active.
As for `O=C(Nc1ccccc1NC(=O)c1ccc2c(c1)OCO2)c1ccc2c(c1)OCO2`, the result in the assay on Mus musculus [1] was Active.
